Common to all, as to type: functional, organism-based
The subject of assay [1] is Mus musculus. The assay can be described thus: Antiinflammatory activity against carrageenan-induced inflammation in CD1 mouse assessed as inhibition of iNOS expression at 1 mg/kg, ip after 48 hrs by Western blot. Also on record: dose 1 mg/kg. On the technique in general: Immunoblotting shows a protein as a band on a membrane.
The subject of assay [2] is Mus musculus. The assay can be described thus: Antiinflammatory activity against carrageenan-induced inflammation in CD1 mouse assessed as inhibition of MPO activity at 1 mg/kg, ip after 4 hrs. The arrangement: dose 1 mg/kg.
In assay [3] the test system is Mus musculus. The assay can be described thus: Antiinflammatory activity against carrageenan-induced inflammation in CD1 mouse assessed as inhibition of COX2 activity in second edema phase at 1 mg/kg, ip after 24 to 72 hrs by Western blot. The arrangement: dose 1 mg/kg.
In assay [4] the test system is Mus musculus. The experiment in a line: Antiinflammatory activity against carrageenan-induced inflammation in CD1 mouse assessed as inhibition of COX1 activity in second edema phase at 1 mg/kg, ip after 2 to 4 hrs by Western blot. Also on record: dose 1 mg/kg.
Assay [5] relates to Mus musculus. The assay can be described thus: Antiinflammatory activity in ip dosed CD1 mouse assessed as inhibition of carrageenan-induced paw edema by hydroplethismometer. A general note: The carrageenan paw model is a standard test of acute inflammation.
Assay [6] concerns Mus musculus. The experiment in a line: Antiinflammatory activity against carrageenan-induced inflammation in CD1 mouse assessed as inhibition of COX2 activity in early edema phase at 1 mg/kg, ip after 2 to 4 hrs by Western blot. Also on record: dose 1 mg/kg.
In assay [7] the test system is Mus musculus. The experiment in a line: Antiinflammatory activity against carrageenan-induced inflammation in CD1 mouse assessed as inhibition of iNOS expression at 1 mg/kg, ip after 2 hrs by Western blot. The arrangement: dose 1 mg/kg.
Assay [8] concerns Mus musculus. The experiment in a line: Antiinflammatory activity against carrageenan-induced inflammation in CD1 mouse assessed as inhibition of MPO activity at 1 mg/kg, ip after 48 hrs. Also on record: dose 1 mg/kg.
The subject of assay [9] is Mus musculus. The assay can be described thus: Antiinflammatory activity against carrageenan-induced inflammation in CD1 mouse assessed as inhibition of COX1 activity in second edema phase at 1 mg/kg, ip after 24 to 72 hrs by Western blot. The arrangement: dose 1 mg/kg.

Each structure is given as a SMILES string. Activity calls are given as the source filed them. The calls are words filed in the database; no cut-off is given here.

For the compound `CC1(C)[C@H](Br)CC[C@@]2(C)C3=CC[C@](C)([C@@H](Br)COS(=O)(=O)O)C[C@H]3[C@H](O)C[C@H]12`, the outcome in the assay on Mus musculus [1], in the assay with Mus musculus [2], with Mus musculus [3], with Mus musculus [6], with Mus musculus [7] and with Mus musculus [8] was Active. For the same compound, in the assay with Mus musculus [9], the result was Active. The result in the assay with Mus musculus [4] was inactive. The Activity result in the assay with Mus musculus [5] is “Dose-dependent effect”.

For the origin of these results see ChEMBL document CHEMBL1152643, “Tedanol: a potent anti-inflammatory ent-pimarane diterpene from the Caribbean Sponge Tedania ignis” (Bioorg Med Chem, 2009).
